The values below are quoted from earlier work in US20150250776A1, “COMPOSITIONS AND METHODS FOR ORAL DELIVERY OF ENCAPSULATED 3-AMINOPYRIDINE-2-CARBOXALDEHYDE PARTICLES” (NANOTHERAPEUTICS, INC., priority 2014, published 2015).

Data set [1] concerns tumor cell lines. Particulars: tumor cell lines compared with a fibroblast cell line.
Data set [2] relates to cell lines selected for resistance to hydroxyurea.

`Nc1cccnc1C=O` [3-AP, 3-aminopyridine-2-carboxaldehyde]: the “solubility in DMSO” value (DMSO) is “soluble”. Also, the “solubility in aqueous solutions” value (aqueous solutions) is recorded as “poor solubility”. For the same compound, in data set [1], the “cytotoxic effects, tumor versus fibroblast cell line” value is “preferential cytotoxic effects”. In addition, the “activity in hydroxyurea-resistant cell lines” value in data set [2] is “active”.
